According to patent US20260151400A1, “USE OF ANTAGONISTS OF NEUROKININ-1 RECEPTOR AND NUCLEOSIDE ANALOGS FOR THE TREATMENT OF HERPESVIRIDAE” (THE REGENTS OF THE UNIVERSITY OF COLORADO, a body corporate, priority 2022, published 2026):

Columns and labels:
[1] = IV acyclovir; precipitation of aciclovir crystals in the kidney; cited from earlier work
[2] = molecular target: NK-1 receptors in the brain (Homo sapiens, UniProt P25103); conditions: occupies NK-1 receptors in the brain; cited from earlier work
NK-1 receptors in the brain, sequence (P25103 whole entry): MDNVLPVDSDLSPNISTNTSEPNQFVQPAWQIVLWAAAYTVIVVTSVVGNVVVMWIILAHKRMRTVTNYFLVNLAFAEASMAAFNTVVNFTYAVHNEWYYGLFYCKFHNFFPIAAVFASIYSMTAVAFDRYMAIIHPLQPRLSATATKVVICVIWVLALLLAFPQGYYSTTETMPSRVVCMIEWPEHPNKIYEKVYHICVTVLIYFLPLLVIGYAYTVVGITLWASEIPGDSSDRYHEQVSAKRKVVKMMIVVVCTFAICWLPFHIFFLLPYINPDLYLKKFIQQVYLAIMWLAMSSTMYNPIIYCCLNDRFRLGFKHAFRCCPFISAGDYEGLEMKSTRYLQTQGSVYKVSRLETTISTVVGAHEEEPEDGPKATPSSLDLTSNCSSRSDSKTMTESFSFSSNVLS

[3] = test system: uninfected HA-sp (primary human spinal astrocytes); conditions: aprepitant tested at 1-100 μM, data not shown
Description: After 24 hours, medium was changed to basal astrocyte medium containing 0.1% FBS and 1% 100× penicillin-streptomycin that was replenished every 72 hours for 7 days to establish quiescence. On day 7, spinal astrocytes were co-cultivated with VZV-infected spinal astrocytes (40 pfu/mL) or mock-infected spinal astrocytes.

Nc1nc2c(ncn2COCCO)c(=O)[nH]1 [acyclovir]
patients with reversible nephrotoxicity [1]: 5-10%

C[C@@H](O[C@H]1OCCN(Cc2n[nH]c(=O)[nH]2)[C@H]1c1ccc(F)cc1)c1cc(C(F)(F)F)cc(C(F)(F)F)c1 [aprepitant]
blood-brain barrier crossing [2]: crosses the blood-brain barrier | optimal concentration to avoid cell death [3]: 10 µM
